{"source": "the supplement of paper PMC10627819", "key": {"[1]": {"tested_on": "B. subtilis 168", "test": "Bliss interaction score (quartile over a dose matrix) (fitness difference); higher = more antagonism (negative = synergy)", "procedure,_shortened": "(§1)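 Fitness here means normalised growth, inferred for single drugs from the combination data. Growth was OD595 at entry into stationary phase, divided by the plate's robust no-drug mean and capped at 1. The Bliss score is observed minus expected fitness, with the expectation being the product, and its quartiles span technical, biological and donor/recipient replicates.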"}, "[2]": {"tested_on": "S. aureus DSM 20231", "test": "Bliss interaction score (quartile over a dose matrix) (fitness difference); higher = more antagonism (negative = synergy)", "procedure,_shortened": "as §1"}, "[3]": {"tested_on": "S. aureus Newman", "test": "Bliss interaction score (quartile over a dose matrix) (fitness difference); higher = more antagonism (negative = synergy)", "procedure,_shortened": "as §1"}, "[4]": {"tested_on": "S. pneumoniae D39V", "test": "Bliss interaction score (quartile over a dose matrix) (fitness difference); higher = more antagonism (negative = synergy)", "procedure,_shortened": "as §1"}, "[5]": {"tested_on": "B. subtilis 168", "test": "fitness (endpoint OD595 vs no drug) (fraction); higher = more growth", "procedure,_shortened": "(§2)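 Fitness was defined as the optical density at the transition into stationary phase relative to the robust mean of no-drug control wells. Values were capped at 1. Cultures were started at OD595 0.01 in 384-well plates (30 µl, or 55 µl for S. pneumoniae) in TSB, LB Lennox or CY at 37 °C. OD595 was recorded every 30 min over 14 h, with the first reading subtracted as background.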"}, "[6]": {"tested_on": "S. pneumoniae D39V", "test": "fitness (endpoint OD595 vs no drug) (fraction); higher = more growth", "procedure,_shortened": "as §2"}}, "data": [{"smiles": "CO/N=C(\\C(=O)N[C@@H]1C(=O)N2C(C(=O)O)=C(COC(C)=O)CS[C@H]12)c1csc(N)n1", "note": "[Cefotaxime] + C[C@H]1c2cccc(O)c2C(=O)C2=C(O)[C@]3(O)C(=O)C(C(N)=O)=C(O)[C@@H](N(C)C)[C@@H]3[C@@H](O)[C@@H]21 [Doxycycline]", "values": [{"measurement": "Bliss interaction score", "setting": "[1]", "value": 0.0737}, {"measurement": "Bliss interaction score", "setting": "[2]", "value": 0.141}, {"measurement": "Bliss interaction score", "setting": "[3]", "value": 0.0304}, {"measurement": "Bliss interaction score", "setting": "[4]", "value": 0.0963}, {"measurement": "fitness", "setting": "[5]; first compound 0.00775 µg/mL, partner 0.02 µg/mL, one replicate", "value": 0.855}, {"measurement": "fitness", "setting": "[5]; first compound 0.00775 µg/mL, partner 0.04 µg/mL, one replicate", "value": 0.665}, {"measurement": "fitness", "setting": "[5]; first compound 0.00775 µg/mL, partner 0.08 µg/mL, one replicate", "value": 0.278}, {"measurement": "fitness", "setting": "[5]; first compound 0.0155 µg/mL, partner 0.02 µg/mL, one replicate", "value": 0.698}, {"measurement": "fitness", "setting": "[5]; first compound 0.0155 µg/mL, partner 0.04 µg/mL, one replicate", "value": 0.523}, {"measurement": "fitness", "setting": "[5]; first compound 0.0155 µg/mL, partner 0.08 µg/mL, one replicate", "value": 0.0446}, {"measurement": "fitness", "setting": "[5]; first compound 0.031 µg/mL, partner 0.02 µg/mL, one replicate", "value": 0.508}, {"measurement": "fitness", "setting": "[5]; first compound 0.031 µg/mL, partner 0.04 µg/mL, one replicate", "value": 0.377}, {"measurement": "fitness", "setting": "[5]; first compound 0.031 µg/mL, partner 0.08 µg/mL, one replicate", "value": 0.0311}, {"measurement": "fitness", "setting": "[5]; first compound 0.0625 µg/mL, partner 0.02 µg/mL, one replicate", "value": 0.608}, {"measurement": "fitness", "setting": "[5]; first compound 0.0625 µg/mL, partner 0.04 µg/mL, one replicate", "value": 0.511}, {"measurement": "fitness", "setting": "[5]; first compound 0.0625 µg/mL, partner 0.08 µg/mL, one replicate", "value": 0.343}, {"measurement": "fitness", "setting": "[5]; first compound 0.125 µg/mL, partner 0.02 µg/mL, one replicate", "value": 0.538}, {"measurement": "fitness", "setting": "[5]; first compound 0.125 µg/mL, partner 0.04 µg/mL, one replicate", "value": 0.366}, {"measurement": "fitness", "setting": "[5]; first compound 0.125 µg/mL, partner 0.08 µg/mL, one replicate", "value": 0.209}, {"measurement": "fitness", "setting": "[5]; first compound 0.25 µg/mL, partner 0.02 µg/mL, one replicate", "value": 0.467}, {"measurement": "fitness", "setting": "[5]; first compound 0.25 µg/mL, partner 0.04 µg/mL, one replicate", "value": 0.304}, {"measurement": "fitness", "setting": "[5]; first compound 0.25 µg/mL, partner 0.08 µg/mL, one replicate", "value": 0.252}, {"measurement": "fitness", "setting": "[5]; first compound 0.5 µg/mL, partner 0.02 µg/mL", "value": 0.288}, {"measurement": "fitness", "setting": "[5]; first compound 0.5 µg/mL, partner 0.04 µg/mL", "value": 0.204}, {"measurement": "fitness", "setting": "[5]; first compound 0.5 µg/mL, partner 0.08 µg/mL", "value": 0.0692}, {"measurement": "fitness", "setting": "[5]; first compound 1 µg/mL, partner 0.02 µg/mL", "value": 0.198}, {"measurement": "fitness", "setting": "[5]; first compound 1 µg/mL, partner 0.04 µg/mL", "value": 0.086}, {"measurement": "fitness", "setting": "[5]; first compound 1 µg/mL, partner 0.08 µg/mL", "value": 0.0318}, {"measurement": "fitness", "setting": "[5]; first compound 2 µg/mL, partner 0.02 µg/mL", "value": 0.157}, {"measurement": "fitness", "setting": "[5]; first compound 2 µg/mL, partner 0.04 µg/mL", "value": 0.0899}, {"measurement": "fitness", "setting": "[5]; first compound 2 µg/mL, partner 0.08 µg/mL", "value": 0.0723}, {"measurement": "fitness", "setting": "[6]; first compound 0.0018 µg/mL, partner 0.003875 µg/mL, one replicate", "value": "≥ 1"}, {"measurement": "fitness", "setting": "[6]; first compound 0.0018 µg/mL, partner 0.00775 µg/mL, one replicate", "value": "≥ 1"}, {"measurement": "fitness", "setting": "[6]; first compound 0.0018 µg/mL, partner 0.0155 µg/mL", "value": 0.955}, {"measurement": "fitness", "setting": "[6]; first compound 0.0018 µg/mL, partner 0.031 µg/mL", "value": 0.814}, {"measurement": "fitness", "setting": "[6]; first compound 0.0035 µg/mL, partner 0.003875 µg/mL, one replicate", "value": "≥ 1"}, {"measurement": "fitness", "setting": "[6]; first compound 0.0035 µg/mL, partner 0.00775 µg/mL, one replicate", "value": 0.974}, {"measurement": "fitness", "setting": "[6]; first compound 0.0035 µg/mL, partner 0.0155 µg/mL", "value": 0.943}, {"measurement": "fitness", "setting": "[6]; first compound 0.0035 µg/mL, partner 0.031 µg/mL", "value": 0.801}, {"measurement": "fitness", "setting": "[6]; first compound 0.007 µg/mL, partner 0.003875 µg/mL, one replicate", "value": 0.866}, {"measurement": "fitness", "setting": "[6]; first compound 0.007 µg/mL, partner 0.00775 µg/mL, one replicate", "value": 0.888}, {"measurement": "fitness", "setting": "[6]; first compound 0.007 µg/mL, partner 0.0155 µg/mL", "value": 0.864}, {"measurement": "fitness", "setting": "[6]; first compound 0.007 µg/mL, partner 0.031 µg/mL", "value": 0.794}]}, {"smiles": "C[C@H]1c2cccc(O)c2C(=O)C2=C(O)[C@]3(O)C(=O)C(C(N)=O)=C(O)[C@@H](N(C)C)[C@@H]3[C@@H](O)[C@@H]21", "note": "[Doxycycline] + CN(C)C(=O)C(CCN1CCC(O)(c2ccc(Cl)cc2)CC1)(c1ccccc1)c1ccccc1 [Loperamide]", "values": [{"measurement": "Bliss interaction score", "setting": "[1]", "value": -0.189}, {"measurement": "Bliss interaction score", "setting": "[2]", "value": 0.107}, {"measurement": "Bliss interaction score", "setting": "[3]", "value": 0.0172}, {"measurement": "Bliss interaction score", "setting": "[4]", "value": 0.193}, {"measurement": "fitness", "setting": "[5]; first compound 0.02 µg/mL, partner 25 µg/mL", "value": 0.544}, {"measurement": "fitness", "setting": "[5]; first compound 0.02 µg/mL, partner 50 µg/mL", "value": 0.0585}, {"measurement": "fitness", "setting": "[5]; first compound 0.02 µg/mL, partner 100 µg/mL", "value": 0.0358}, {"measurement": "fitness", "setting": "[5]; first compound 0.04 µg/mL, partner 25 µg/mL", "value": 0.0527}, {"measurement": "fitness", "setting": "[5]; first compound 0.04 µg/mL, partner 50 µg/mL", "value": 0.0434}, {"measurement": "fitness", "setting": "[5]; first compound 0.04 µg/mL, partner 100 µg/mL", "value": 0.0354}, {"measurement": "fitness", "setting": "[5]; first compound 0.08 µg/mL, partner 25 µg/mL", "value": 0.0276}, {"measurement": "fitness", "setting": "[5]; first compound 0.08 µg/mL, partner 50 µg/mL", "value": 0.0338}, {"measurement": "fitness", "setting": "[5]; first compound 0.08 µg/mL, partner 100 µg/mL", "value": 0.0354}, {"measurement": "fitness", "setting": "[6]; first compound 0.003875 µg/mL, partner 20 µg/mL, one replicate", "value": "≥ 1"}, {"measurement": "fitness", "setting": "[6]; first compound 0.003875 µg/mL, partner 40 µg/mL, one replicate", "value": "≥ 1"}, {"measurement": "fitness", "setting": "[6]; first compound 0.003875 µg/mL, partner 80 µg/mL, one replicate", "value": "≥ 1"}, {"measurement": "fitness", "setting": "[6]; first compound 0.00775 µg/mL, partner 20 µg/mL, one replicate", "value": "≥ 1"}, {"measurement": "fitness", "setting": "[6]; first compound 0.00775 µg/mL, partner 40 µg/mL, one replicate", "value": "≥ 1"}, {"measurement": "fitness", "setting": "[6]; first compound 0.00775 µg/mL, partner 80 µg/mL, one replicate", "value": "≥ 1"}, {"measurement": "fitness", "setting": "[6]; first compound 0.0155 µg/mL, partner 17.14 µg/mL", "value": 0.874}, {"measurement": "fitness", "setting": "[6]; first compound 0.0155 µg/mL, partner 20 µg/mL", "value": "≥ 1"}, {"measurement": "fitness", "setting": "[6]; first compound 0.0155 µg/mL, partner 34.28 µg/mL", "value": 0.861}, {"measurement": "fitness", "setting": "[6]; first compound 0.0155 µg/mL, partner 40 µg/mL", "value": "≥ 1"}, {"measurement": "fitness", "setting": "[6]; first compound 0.0155 µg/mL, partner 68.57 µg/mL, one replicate", "value": 0.858}, {"measurement": "fitness", "setting": "[6]; first compound 0.0155 µg/mL, partner 80 µg/mL", "value": "≥ 1"}, {"measurement": "fitness", "setting": "[6]; first compound 0.031 µg/mL, partner 17.14 µg/mL", "value": 0.939}, {"measurement": "fitness", "setting": "[6]; first compound 0.031 µg/mL, partner 20 µg/mL, one replicate", "value": 0.976}, {"measurement": "fitness", "setting": "[6]; first compound 0.031 µg/mL, partner 34.28 µg/mL", "value": 0.932}, {"measurement": "fitness", "setting": "[6]; first compound 0.031 µg/mL, partner 40 µg/mL, one replicate", "value": 0.942}, {"measurement": "fitness", "setting": "[6]; first compound 0.031 µg/mL, partner 68.57 µg/mL, one replicate", "value": 0.875}, {"measurement": "fitness", "setting": "[6]; first compound 0.031 µg/mL, partner 80 µg/mL, one replicate", "value": 0.973}, {"measurement": "fitness", "setting": "[6]; first compound 0.062 µg/mL, partner 17.14 µg/mL", "value": 0.864}, {"measurement": "fitness", "setting": "[6]; first compound 0.062 µg/mL, partner 20 µg/mL, one replicate", "value": 0.836}, {"measurement": "fitness", "setting": "[6]; first compound 0.062 µg/mL, partner 34.28 µg/mL", "value": 0.895}, {"measurement": "fitness", "setting": "[6]; first compound 0.062 µg/mL, partner 40 µg/mL, one replicate", "value": 0.826}, {"measurement": "fitness", "setting": "[6]; first compound 0.062 µg/mL, partner 68.57 µg/mL, one replicate", "value": 0.966}, {"measurement": "fitness", "setting": "[6]; first compound 0.062 µg/mL, partner 80 µg/mL, one replicate", "value": 0.764}]}]}
